# Results reported in ChEMBL document CHEMBL1201862, “PubChem BioAssay data set” (2004).
# The source made the active and inactive calls.
# Key:
# [1] = target: Troponin, cardiac muscle (Homo sapiens, UniProt P19429+P45379+P63316); test: Fluorescence-based biochemical high throughput dose response assay for activators of the calcium sensitivity of cardiac Regulated Thin Filaments (RTF). [Related pubchem assays (depositor defined):AID493008, AID493018, AID504382, AID504383]; assay type: protein-complex assay
# [2] = target: T1, Cytochrome P450 3A4 (Homo sapiens, UniProt P08684);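 further: CYP3A4 tested as one member of a cytochrome P450 panel screen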
# T1 sequence (P08684 whole entry): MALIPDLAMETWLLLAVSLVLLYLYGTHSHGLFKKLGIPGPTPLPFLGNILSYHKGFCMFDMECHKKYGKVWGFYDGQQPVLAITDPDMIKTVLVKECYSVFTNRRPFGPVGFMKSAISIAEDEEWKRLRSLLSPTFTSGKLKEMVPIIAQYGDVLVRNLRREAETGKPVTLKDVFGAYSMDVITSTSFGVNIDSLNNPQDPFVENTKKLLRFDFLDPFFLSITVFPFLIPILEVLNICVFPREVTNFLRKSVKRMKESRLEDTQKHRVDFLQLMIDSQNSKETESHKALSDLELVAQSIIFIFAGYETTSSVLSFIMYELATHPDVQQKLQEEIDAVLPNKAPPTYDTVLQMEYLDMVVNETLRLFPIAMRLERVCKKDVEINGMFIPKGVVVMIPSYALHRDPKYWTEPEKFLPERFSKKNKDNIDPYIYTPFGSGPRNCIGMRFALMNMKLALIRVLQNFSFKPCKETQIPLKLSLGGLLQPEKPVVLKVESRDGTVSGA
# [3] = target: DNA dC->dU-editing enzyme APOBEC-3G (Homo sapiens, UniProt Q9HC16); assay type: functional;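 further: Dose-response counterscreen measuring inhibition of APOBEC3G DNA deaminase activity, run while confirming APOBEC3A inhibitors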
# Chain of DNA dC->dU-editing enzyme APOBEC-3G (Q9HC16 whole entry): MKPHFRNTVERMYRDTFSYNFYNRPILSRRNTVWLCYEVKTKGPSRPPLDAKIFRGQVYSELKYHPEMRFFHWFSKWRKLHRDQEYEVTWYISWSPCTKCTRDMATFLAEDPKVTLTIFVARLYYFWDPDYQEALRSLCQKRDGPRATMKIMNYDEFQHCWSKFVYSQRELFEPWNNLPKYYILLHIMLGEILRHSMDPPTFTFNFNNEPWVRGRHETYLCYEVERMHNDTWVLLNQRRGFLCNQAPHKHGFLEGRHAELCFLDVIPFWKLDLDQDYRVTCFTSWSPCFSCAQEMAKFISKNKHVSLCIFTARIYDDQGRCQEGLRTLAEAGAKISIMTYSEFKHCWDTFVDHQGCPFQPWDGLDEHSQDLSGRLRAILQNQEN
# [4] = target: DNA dC->dU-editing enzyme APOBEC-3A (Homo sapiens, UniProt P31941); test: Dose Response confirmation of small molecule APOBEC3A DNA Deaminase Inhibitors via a fluorescence-based single-stranded DNA deaminase assay. [Related pubchem assays (depositor defined):AID493011, AID493024]; assay type: functional
# Chain of DNA dC->dU-editing enzyme APOBEC-3A (P31941 whole entry): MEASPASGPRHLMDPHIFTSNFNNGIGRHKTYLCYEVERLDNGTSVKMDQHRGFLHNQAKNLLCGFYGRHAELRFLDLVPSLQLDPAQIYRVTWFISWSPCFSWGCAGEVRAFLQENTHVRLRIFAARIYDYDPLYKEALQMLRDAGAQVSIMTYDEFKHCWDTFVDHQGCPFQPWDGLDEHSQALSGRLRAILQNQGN
# [5] = target: T2, Bcl-2-like protein 10 (Homo sapiens, UniProt Q9HD36); test: displacers of TR3 peptide from Bcl-B, primary screen, selectivity assay for Bfl-1 inhibitor project, biochemical, fluorescence polarization, FITC-TR3 peptide (AID 748);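 further: fluorescence polarization from a fluorescein-labelled TR3 peptide binding purified Bcl-B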
# T2 sequence (Q9HD36 whole entry): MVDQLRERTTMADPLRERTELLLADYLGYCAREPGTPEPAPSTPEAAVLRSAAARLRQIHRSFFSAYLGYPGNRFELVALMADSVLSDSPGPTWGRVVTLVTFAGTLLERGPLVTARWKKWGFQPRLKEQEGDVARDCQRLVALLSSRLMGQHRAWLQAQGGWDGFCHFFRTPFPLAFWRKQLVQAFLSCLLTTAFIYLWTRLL
# [6] = target: T3, Aminopeptidase N (Plasmodium falciparum FcB1/Columbia, UniProt O96935); test: P. falciparum M1AAP inhibitors, biochemical, fluorogenic H-Leu-NHMec substrate, 1536-well (AID 1445); design: species or system Plasmodium falciparum 3D7, 3D7
# T3 sequence (O96935 whole entry): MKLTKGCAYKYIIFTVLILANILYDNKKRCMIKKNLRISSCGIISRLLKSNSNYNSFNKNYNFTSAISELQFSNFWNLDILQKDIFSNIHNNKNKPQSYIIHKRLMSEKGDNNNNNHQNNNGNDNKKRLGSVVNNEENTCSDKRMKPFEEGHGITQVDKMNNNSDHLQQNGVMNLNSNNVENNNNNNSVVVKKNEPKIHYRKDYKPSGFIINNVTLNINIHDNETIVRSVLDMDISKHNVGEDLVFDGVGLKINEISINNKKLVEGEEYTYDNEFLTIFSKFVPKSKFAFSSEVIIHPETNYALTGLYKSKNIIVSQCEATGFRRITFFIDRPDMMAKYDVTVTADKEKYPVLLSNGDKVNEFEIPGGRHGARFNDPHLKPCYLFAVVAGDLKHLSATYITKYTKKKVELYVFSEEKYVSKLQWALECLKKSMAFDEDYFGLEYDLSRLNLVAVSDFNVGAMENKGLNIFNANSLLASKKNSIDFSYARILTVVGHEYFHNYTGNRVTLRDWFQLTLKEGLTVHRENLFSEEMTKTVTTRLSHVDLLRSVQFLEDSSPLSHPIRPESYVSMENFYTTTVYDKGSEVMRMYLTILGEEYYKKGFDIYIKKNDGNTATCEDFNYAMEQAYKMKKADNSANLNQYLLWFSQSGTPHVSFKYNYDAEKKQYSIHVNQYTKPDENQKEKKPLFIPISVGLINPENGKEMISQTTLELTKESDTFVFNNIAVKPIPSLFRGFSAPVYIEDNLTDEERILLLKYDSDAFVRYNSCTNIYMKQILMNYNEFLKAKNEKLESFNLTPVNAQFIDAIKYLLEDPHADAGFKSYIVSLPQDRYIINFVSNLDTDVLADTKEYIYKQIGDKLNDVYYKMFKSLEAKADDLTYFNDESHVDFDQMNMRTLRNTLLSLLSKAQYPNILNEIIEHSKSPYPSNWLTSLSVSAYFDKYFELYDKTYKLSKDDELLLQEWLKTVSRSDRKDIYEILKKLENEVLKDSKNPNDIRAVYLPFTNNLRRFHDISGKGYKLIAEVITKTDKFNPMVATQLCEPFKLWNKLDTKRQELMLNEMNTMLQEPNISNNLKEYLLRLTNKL
# [7] = target: Beta-galactosidase (Escherichia coli, UniProt Q8VNN2); test: beta-galactosidase enzyme inhibitors and activators, dose response, artefact control for CCR6 antagonist project, biochemical, E. coli enzyme, set 3 (AID 504712); assay type: functional
# Chain of Beta-galactosidase (Q8VNN2 whole entry): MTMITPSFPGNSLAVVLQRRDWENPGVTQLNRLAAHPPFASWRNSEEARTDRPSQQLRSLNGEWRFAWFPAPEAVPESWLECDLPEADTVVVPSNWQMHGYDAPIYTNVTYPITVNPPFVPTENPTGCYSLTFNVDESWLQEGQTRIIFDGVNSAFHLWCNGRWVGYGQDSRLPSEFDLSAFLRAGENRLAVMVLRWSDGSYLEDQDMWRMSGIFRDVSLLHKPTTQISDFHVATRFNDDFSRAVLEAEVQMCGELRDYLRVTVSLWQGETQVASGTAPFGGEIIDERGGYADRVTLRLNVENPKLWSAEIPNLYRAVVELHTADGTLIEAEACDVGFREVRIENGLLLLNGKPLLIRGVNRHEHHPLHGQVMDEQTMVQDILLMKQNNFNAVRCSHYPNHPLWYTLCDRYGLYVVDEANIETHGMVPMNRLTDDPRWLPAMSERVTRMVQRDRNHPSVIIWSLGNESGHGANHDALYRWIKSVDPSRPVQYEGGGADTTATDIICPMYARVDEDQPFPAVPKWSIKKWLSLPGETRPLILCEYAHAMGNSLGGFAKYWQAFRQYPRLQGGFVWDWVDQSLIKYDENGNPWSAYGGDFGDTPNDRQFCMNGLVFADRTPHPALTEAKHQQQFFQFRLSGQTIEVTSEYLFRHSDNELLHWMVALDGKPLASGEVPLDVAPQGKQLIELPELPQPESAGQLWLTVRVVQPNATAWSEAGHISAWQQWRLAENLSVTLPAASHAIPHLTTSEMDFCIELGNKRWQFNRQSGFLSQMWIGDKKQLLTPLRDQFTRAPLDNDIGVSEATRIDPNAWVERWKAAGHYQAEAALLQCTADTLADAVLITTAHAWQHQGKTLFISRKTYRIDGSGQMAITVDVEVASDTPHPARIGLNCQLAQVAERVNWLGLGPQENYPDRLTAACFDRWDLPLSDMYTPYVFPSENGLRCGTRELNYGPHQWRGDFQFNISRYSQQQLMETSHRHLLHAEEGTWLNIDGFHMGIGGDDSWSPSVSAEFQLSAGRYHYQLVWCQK
# [8] = inhibitors of firefly luciferase expression or activity, dose response, H4 neuroglioma cells, luminescence (AID 1990); assay type: functional, cell-based
# [9] = inhibitors of SNCA 5'UTR-driven reporter translation, confirmation, H4 neuroglioma cells, luminescence (AID 1988); assay type: functional, cell-based
# [10] = cytotoxicity in HEK-293T cells, dose response, cytotoxicity control for TCR NF-kB inhibitor project, luminescence, T-cell screen hits (AID 489026); assay type: functional, cell-based;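 further: cells exposed to compound about 14 hours before the viability readout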
# [11] = luciferase reporter signal reduction – luminescence, H4-C neuroglioblastoma cells, dose response (AID 2458); assay type: functional, cell-based;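 further: H4 neuroglioblastoma cells stably carrying a luciferase reporter gene fusion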
# [12] = cells; assay type: functional, cell-based
# [13] = Luminescence Cell-Based Dose Response HTS to Identify Inhibitors of 5'UTR Stem-Loop Driven Prion Protein mRNA Translation in H4 Neuroglioblastoma Cells. [Related pubchem assays: 1827 (Project Summary), 1813 (Primary HTS)]; assay type: functional
# [14] = inhibitors of SNCA 5'UTR-driven translation, confirmation, luminescence, H4 neuroglioblastoma cells, dose confirmation (AID 2454); assay type: functional, cell-based;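 further: H4 neuroglioblastoma cells carrying an alpha-synuclein 5'UTR luciferase reporter; potency for inhibition of the luciferase signal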
# [15] = target: Glucose-6-phosphate 1-dehydrogenase (Homo sapiens, UniProt P11413); test: human G6PD enzyme inhibitors, dose response, selectivity assay for P. falciparum G6PD inhibitor project, biochemical, fluorescence (AID 504792); assay type: functional
# Chain of Glucose-6-phosphate 1-dehydrogenase (P11413 whole entry): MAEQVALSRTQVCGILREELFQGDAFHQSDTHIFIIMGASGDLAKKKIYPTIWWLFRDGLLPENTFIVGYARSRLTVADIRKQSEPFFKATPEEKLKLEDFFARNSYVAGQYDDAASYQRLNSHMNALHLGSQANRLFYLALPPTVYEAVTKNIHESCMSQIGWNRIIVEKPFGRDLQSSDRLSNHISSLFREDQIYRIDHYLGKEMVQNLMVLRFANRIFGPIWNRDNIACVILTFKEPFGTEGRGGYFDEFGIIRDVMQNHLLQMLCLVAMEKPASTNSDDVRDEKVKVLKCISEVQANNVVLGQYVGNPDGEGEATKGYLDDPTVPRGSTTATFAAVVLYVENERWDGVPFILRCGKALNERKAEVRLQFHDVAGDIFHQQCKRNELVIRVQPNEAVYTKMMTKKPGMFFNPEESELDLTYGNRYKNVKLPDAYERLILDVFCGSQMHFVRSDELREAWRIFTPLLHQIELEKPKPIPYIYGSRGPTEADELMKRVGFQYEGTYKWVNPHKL
# [16] = inhibitors of intracellular T. cruzi replication, confirmation, NIH3T3 host cells, beta-gal luminescence (AID 2044); assay type: functional, cell-based;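 further: intracellular parasites grown in NIH/3T3 mouse fibroblasts as host cells; luminescent beta-galactosidase reporter signal from transgenic T. cruzi replicating inside host cells; inhibitors lower the luminescence signal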
# [17] = cytotoxicity toward NIH3T3 fibroblasts, dose response, counter-screen, cell-based, ATP luminescence, mouse fibroblasts (AID 2010); assay type: functional;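 further: cells exposed to compound for about 90 hours before reading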
# [18] = test system: HEK293; test: cells; settings: Homo sapiens
# [19] = test system: HEK293; test: cells; settings: Homo sapiens; remark: listed apart in the source
# [20] = target: T4, Protein skinhead-1 (Caenorhabditis elegans, UniProt P34707); assay type: functional
# T4 sequence (P34707 whole entry): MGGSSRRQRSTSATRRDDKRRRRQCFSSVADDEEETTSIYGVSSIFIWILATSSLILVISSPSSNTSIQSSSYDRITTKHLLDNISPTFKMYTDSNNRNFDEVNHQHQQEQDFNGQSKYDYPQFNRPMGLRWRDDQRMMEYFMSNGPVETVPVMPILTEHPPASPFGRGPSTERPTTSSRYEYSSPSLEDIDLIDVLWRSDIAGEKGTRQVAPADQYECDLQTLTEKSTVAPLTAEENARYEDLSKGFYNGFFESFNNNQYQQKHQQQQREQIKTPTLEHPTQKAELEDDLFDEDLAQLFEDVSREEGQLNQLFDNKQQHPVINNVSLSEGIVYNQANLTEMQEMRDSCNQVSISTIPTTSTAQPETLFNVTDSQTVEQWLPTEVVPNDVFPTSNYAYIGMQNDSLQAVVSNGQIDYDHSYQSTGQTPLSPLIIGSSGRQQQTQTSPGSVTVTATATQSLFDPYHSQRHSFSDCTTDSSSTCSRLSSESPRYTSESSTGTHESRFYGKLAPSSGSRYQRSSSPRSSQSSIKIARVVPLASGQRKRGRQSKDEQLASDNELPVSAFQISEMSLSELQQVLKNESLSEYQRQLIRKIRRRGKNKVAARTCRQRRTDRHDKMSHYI
# [21] = target: T5, Rac GTPase-activating protein 1 (Homo sapiens, UniProt Q9H0H5); test: MgcRacGAP GTPase-activating activity inhibitors, confirmation, biochemical, ADP Hunter fluorescence, primary and confirmatory (AID 624330); assay type: functional
# T5 sequence (Q9H0H5 whole entry): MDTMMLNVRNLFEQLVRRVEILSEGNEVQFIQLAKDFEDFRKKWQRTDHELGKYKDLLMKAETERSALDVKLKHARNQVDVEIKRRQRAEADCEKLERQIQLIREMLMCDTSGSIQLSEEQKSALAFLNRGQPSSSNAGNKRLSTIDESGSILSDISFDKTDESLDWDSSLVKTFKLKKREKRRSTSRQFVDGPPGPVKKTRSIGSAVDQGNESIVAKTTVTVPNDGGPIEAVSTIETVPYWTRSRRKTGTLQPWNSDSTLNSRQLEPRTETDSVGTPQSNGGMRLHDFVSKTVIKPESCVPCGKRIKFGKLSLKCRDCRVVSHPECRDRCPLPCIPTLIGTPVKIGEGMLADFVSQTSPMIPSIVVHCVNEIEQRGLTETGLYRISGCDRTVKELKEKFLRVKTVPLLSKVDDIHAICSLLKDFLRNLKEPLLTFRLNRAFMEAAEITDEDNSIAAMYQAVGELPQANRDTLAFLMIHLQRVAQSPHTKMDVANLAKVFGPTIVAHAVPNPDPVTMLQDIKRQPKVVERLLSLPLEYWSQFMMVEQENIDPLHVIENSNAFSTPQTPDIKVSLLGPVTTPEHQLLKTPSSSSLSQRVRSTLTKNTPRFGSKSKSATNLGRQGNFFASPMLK
# [22] = target: SUMO-activating enzyme (Homo sapiens, UniProt Q9UBT2); test: SUMOylation inhibitor hit validation, confirmation, SUMOylation inhibitor project, biochemical, AlphaScreen (AID 2018); assay type: functional
# Chain of SUMO-activating enzyme (Q9UBE0 whole entry): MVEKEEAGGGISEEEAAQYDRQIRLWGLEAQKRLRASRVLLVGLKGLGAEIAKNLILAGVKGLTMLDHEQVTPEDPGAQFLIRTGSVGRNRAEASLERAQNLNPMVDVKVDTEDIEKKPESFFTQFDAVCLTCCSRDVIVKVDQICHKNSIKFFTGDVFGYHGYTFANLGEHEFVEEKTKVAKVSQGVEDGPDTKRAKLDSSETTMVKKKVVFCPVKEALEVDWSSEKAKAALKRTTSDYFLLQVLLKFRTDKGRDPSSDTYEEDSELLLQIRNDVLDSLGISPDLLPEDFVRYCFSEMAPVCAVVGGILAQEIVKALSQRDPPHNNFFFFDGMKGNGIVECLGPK
# Chain of SUMO-activating enzyme (Q9UBT2 whole entry): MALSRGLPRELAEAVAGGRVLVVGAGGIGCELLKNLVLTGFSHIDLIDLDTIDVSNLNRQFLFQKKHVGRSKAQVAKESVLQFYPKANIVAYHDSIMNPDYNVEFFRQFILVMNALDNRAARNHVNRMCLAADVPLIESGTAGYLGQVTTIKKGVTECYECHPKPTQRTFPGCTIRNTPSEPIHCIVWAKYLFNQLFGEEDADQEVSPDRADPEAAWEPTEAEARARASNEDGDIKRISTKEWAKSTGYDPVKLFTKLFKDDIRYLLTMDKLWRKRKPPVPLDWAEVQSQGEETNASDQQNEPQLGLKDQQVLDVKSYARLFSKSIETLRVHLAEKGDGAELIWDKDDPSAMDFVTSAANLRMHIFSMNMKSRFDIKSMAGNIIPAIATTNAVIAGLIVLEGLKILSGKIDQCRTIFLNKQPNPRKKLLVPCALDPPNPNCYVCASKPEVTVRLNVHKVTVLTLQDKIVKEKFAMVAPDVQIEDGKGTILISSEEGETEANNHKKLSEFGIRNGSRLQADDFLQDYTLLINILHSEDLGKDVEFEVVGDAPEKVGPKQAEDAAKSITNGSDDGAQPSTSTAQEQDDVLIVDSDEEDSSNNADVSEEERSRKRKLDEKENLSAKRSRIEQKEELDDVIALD
# [23] = target: T1, Cytochrome P450 3A4; remark: listed apart in the source
# [24] = target: T6, Tyrosine-protein phosphatase non-receptor type 7 (Homo sapiens, UniProt P35236); test: redox-dependent HePTP inhibition, mechanism study, biochemical, fluorescence (AID 2068); assay type: functional
# T6 sequence (P35236 whole entry): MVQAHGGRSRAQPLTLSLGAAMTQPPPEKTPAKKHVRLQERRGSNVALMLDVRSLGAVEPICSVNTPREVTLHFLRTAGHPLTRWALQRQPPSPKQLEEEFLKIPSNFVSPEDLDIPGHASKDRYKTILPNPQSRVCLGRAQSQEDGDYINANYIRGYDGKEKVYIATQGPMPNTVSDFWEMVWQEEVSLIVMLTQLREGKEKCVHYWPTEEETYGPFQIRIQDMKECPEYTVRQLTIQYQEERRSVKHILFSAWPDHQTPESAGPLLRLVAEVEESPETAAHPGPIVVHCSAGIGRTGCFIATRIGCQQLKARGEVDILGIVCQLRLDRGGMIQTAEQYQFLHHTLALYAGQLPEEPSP
compound,measurement,setting,value
Cc1ccc(N2C(=O)NC(=O)/C(=C/C=C/Nc3ccccc3)C2=O)cc1,EC50,[1],5.48 µM (active)
CCOC(=O)c1cnc(-c2ccccc2)nc1Oc1ccccc1,AC50,[2],inconclusive
O=C(c1cccc(F)c1)N1CCC2(CCN(Cc3cc(C(F)(F)F)cc(C(F)(F)F)c3)CC2)CC1,AC50,[2],inconclusive
CCCCNC(=O)CSc1nc2ccc(NC(=O)CSc3nnc(N)s3)cc2s1,IC50,[3],6.28 µM (active)
same,IC50,[4],3.61 µM (active)
Cc1cc(C)c(C)c(S(=O)(=O)N2CCC(C(=O)OCC(=O)N3c4ccccc4NC(=O)C3(C)C)CC2)c1C,IC50,[5],45.3 µM (active)
Cc1cc(=O)oc2c(CN(CC(C)C)CC(C)C)c(O)ccc12,IC50,[6],74 µM (active)
O=C1CC(Sc2nnnn2C2CCCCC2)C(=O)N1c1ccccc1 (configuration not stated),IC50,[7],> 66.6 µM (inactive)
CCOc1ccccc1NC(=O)Cn1nnc(C(=O)NCc2cccs2)c1N,EC50,[8],0.146 µM (active)
same,EC50,[9],< 0.1 µM (active)
same,IC50,[10],> 80 µM (inactive)
same,EC50,[11],0.877 µM (active)
same,EC50,[12],0.696 µM (active)
same,EC50,[13],< 0.1 µM (active)
same,EC50,[14],0.685 µM (active)
Cc1nn(-c2ccccc2)c(Cl)c1/C=N/Nc1nc2ccccc2n1C,IC50,[15],> 80 µM (inactive)
same,EC50,[16],1.94 µM (active)
same,EC50,[17],> 60 µM (not active)
COc1cc2c(cc1OC)-c1nnc(-c3cccs3)n1C(C)(C)C2,EC50,[18],> 59.6 µM (inactive)
same,EC50,[19],> 59.6 µM (inactive)
Nc1ccc(N2CCN(C(=O)c3cccs3)CC2)cc1,IC50,[20],> 100 µM (inactive)
same,IC50,[5],> 100 µM (inactive)
same,IC50,[21],19 µM (active)
O=C(c1ccc2c(c1)nc(S)n1c3ccccc3nc21)N1CCN(c2ncccn2)CC1,IC50,[22],50.6 µM (active)
O=C(C1=C(O)C(=O)N(CCN2CCOCC2)C1c1ccc([N+](=O)[O-])cc1)c1cccs1 (configuration not stated),EC50,[1],> 71.4 µM (inactive)
N#Cc1ccc(CN2CC3(CCN(C(=O)c4cccc(F)c4)CC3)C2)cc1,AC50,[2],inconclusive
CCOC(=O)c1cnc2ccc(C)cc2c1Sc1ccccc1C(=O)OC,IC50,[15],> 80 µM (inactive)
same,EC50,[16],4.01 µM (active)
same,AC50,[23],39.8 µM (inconclusive)
same,EC50,[17],> 60 µM (not active)
C[N+]1(CC(COCc2ccccc2)OC(=O)Cc2ccccc2)CCOCC1 (configuration not stated),IC50,[3],2.42 µM (active)
same,IC50,[4],2.41 µM (active)
COc1cccc(NC(=O)Nc2ccc3nc(-c4ccco4)c(-c4ccco4)nc3c2)c1,IC50,[24],1.09 µM (active)
CC1(C#CC[N+]2(C)CCCCC2)CCC2C(O1)c1ccccc1OC2(C)C (configuration not stated),IC50,[3],5.07 µM (active)
same,IC50,[4],3.03 µM (active)
COc1ccccc1NS(=O)(=O)c1cc(NC(=O)c2cc3ccccc3oc2=O)ccc1C,EC50,[1],> 71.5 µM (inactive)
COc1ccc(Br)cc1/C=N/NC(=O)CNC(=O)c1cccnc1,IC50,[6],27.2 µM (active)
